From patent US20260076983A1, “CANNABINOIDS COMPOSITIONS WITH POLYUNSATURATED FATTY ACID MONOGLYCERIDES AS A SPECIFIC COX-2 INHIBITOR, METHODS AND USES THEREOF” (SCF PHARMA INC., priority 2022, published 2026) come the findings set out here.

The experiment has as its target T1, COX-2 enzyme (Homo sapiens, UniProt P35354).
T1 construct: PGE2 levels in lipopolysaccharide (LPS)-challenged human whole blood; from tissue; host or cells: human whole blood (heparin tube) from one volunteer, LPS-challenged ex vivo
T1 sequence (P35354 18-604): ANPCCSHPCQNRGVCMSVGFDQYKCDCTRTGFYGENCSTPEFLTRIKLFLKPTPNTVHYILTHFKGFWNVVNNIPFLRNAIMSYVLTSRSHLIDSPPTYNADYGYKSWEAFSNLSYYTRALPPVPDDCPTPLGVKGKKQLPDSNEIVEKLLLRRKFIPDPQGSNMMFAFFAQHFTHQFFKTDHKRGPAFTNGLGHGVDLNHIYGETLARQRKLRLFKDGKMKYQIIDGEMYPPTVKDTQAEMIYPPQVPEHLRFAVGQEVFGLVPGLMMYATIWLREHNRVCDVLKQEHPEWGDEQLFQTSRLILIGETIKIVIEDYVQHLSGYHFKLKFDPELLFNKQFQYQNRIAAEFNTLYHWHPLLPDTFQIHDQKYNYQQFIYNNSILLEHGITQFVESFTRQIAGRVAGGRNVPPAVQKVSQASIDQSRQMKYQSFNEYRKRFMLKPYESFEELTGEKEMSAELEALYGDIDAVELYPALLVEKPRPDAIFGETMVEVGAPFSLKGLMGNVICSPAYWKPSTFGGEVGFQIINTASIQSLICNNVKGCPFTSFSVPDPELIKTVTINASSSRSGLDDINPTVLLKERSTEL
In words: PGE2 levels in LPS-challenged human whole blood after oral capsules (human case study). It is filed as in vivo. Conditions: cross-over, blood 3.5 h after dosing.

Procedure: 200 mg of cannabidiol (CBD) dissolved in 2.0 g of MCT oil, 2.0 g of compound of formula (IV) alone and 200 mg of cannabidiol (CBD) dissolved in 2.0 g of compound of formula (IV) were separately encapsulated in four (4) hard gel capsules (size 00) for a cross over COX-2 case study. A pilot cross-over case study was conducted in one volunteer over a three (3) week periods with one experiment per week. In the morning of the experiment, 10 ml of blood was collected in heparin tube from the volunteer fasted for 10 h. The four (4) hard gel capsules were swallowed with a glass of water and blood collection was repeated after 3.5 h. PGE2 levels in lipopolysaccharide (LPS)-challenged human whole blood was measured as biochemical index for cyclooxygenase COX-2 activity (Brideau C, Kargman S, Liu S, Dallob A L, Ehrich E W, Rodger I W, Chan C C. A human whole blood assay for clinical evaluation of biochemical efficacy of cyclooxygenase inhibitors. Inflamm Res. 1996 February; 45(2):68-74. doi: 10.1007/BF02265118. PMID: 8907587).
100 mg of cannabidiol (CBD) dissolved in 2.0 g of compound of formula (IV) was encapsulated in four (4) hard gel capsules (size 00) for COX-1 and COX-2 case study. A pilot case study was conducted in one volunteer. In the morning of the case study, 20 ml of blood was collected (1×10 ml serum tube and 1×10 ml heparin tube) from the volunteer fasted for 10 h. […]

`CC/C=C\C/C=C\C/C=C\C/C=C\C/C=C\CCCC(=O)OCC(O)CO` (centres unmarked) [compound of formula (IV)]: the “inhibition of the COX-2 enzyme” value (Example 1, one volunteer, oral hard gel capsules, 200 mg CBD in 2.0 g MCT oil, 2.0 g compound of formula (IV) alone, 200 mg CBD in 2.0 g compound of formula (IV)) was found to be 10%. Also, the “inhibition of the COX-2 enzyme (in words)” value (Example 3, one volunteer, 2.0 g compound of formula (IV), oral capsules) is on record as “mild inhibition”.
